From ChEMBL document CHEMBL4229464, “Generation of methylated violapyrones with improved anti-influenza A virus activity by heterologous expression of a type III PKS gene in a marine Streptomyces strain” (Bioorg Med Chem Lett, 2018)

What was measured:
[1] = Cytotoxicity against MDCK cells assessed as reduction in cell viability after 48 hrs by crystal violet staining based method; parameters: species or system Canis lupus familiaris; details: dog
H3N2 subtype = assay: Antiviral activity against Influenza A virus (A/Aichi/2/1968(H3N2)) infected in MDCK cells assessed as inhibition of virus-induced cytopathicity after 48 hrs by crystal violet staining based method; type: functional, organism-based
Influenza A virus = assay: Antiviral activity against Influenza A virus (A/Virginia/ATCC1/2009(H1N1)) infected in MDCK cells assessed as inhibition of virus-induced cytopathicity after 48 hrs by crystal violet staining based method; type: functional, organism-based
Staphylococcus aureus = assay: Antibacterial activity against methicillin-resistant Staphylococcus aureus CCARM 3090 at 10 mg/ml after 20 hrs by agar diffusion method; type: functional; details: CCARM 3090, 20 h, read-out: IZ

Cc1c(O)c(CCCCC(C)C)coc1=O
CC50 at 48 h [1]: 1290 µM | IC50 (H3N2 subtype): 150 µM | IC50 (Influenza A virus): 132 µM | zone of inhibition at 10000 µg/mL (Staphylococcus aureus): 11 mm

COc1c(CCCC(C)C)coc(=O)c1C
CC50 at 48 h [1]: 2000 µM | IC50 (H3N2 subtype): 95 µM | IC50 (Influenza A virus): 58.8 µM | zone of inhibition at 10000 µg/mL (Staphylococcus aureus): 0 mm

COc1c(CCCCC(C)C)coc(=O)c1C
CC50 at 48 h [1]: 1880 µM | IC50 (H3N2 subtype): 63.9 µM | IC50 (Influenza A virus): 64.9 µM | zone of inhibition at 10000 µg/mL (Staphylococcus aureus): 6 mm

CCC(C)CCCCc1coc(=O)c(C)c1OC (stereo not given)
CC50 at 48 h [1]: 1550 µM | IC50 (H3N2 subtype): 72.8 µM | IC50 (Influenza A virus): 68.4 µM | zone of inhibition at 10000 µg/mL (Staphylococcus aureus): 0 mm

Cc1c(O)c(CCCC(C)C)coc1=O
CC50 at 48 h [1]: 1240 µM | IC50 (H3N2 subtype): 104 µM | IC50 (Influenza A virus): 60.9 µM | zone of inhibition at 10000 µg/mL (Staphylococcus aureus): 0 mm

CCCCCCCc1coc(=O)c(C)c1O
CC50 at 48 h [1]: 2200 µM | IC50 (H3N2 subtype): 74.3 µM | IC50 (Influenza A virus): 74.3 µM | zone of inhibition at 10000 µg/mL (Staphylococcus aureus): 11 mm

CCCCCCCc1coc(=O)c(C)c1OC
CC50 at 48 h [1]: 2230 µM | IC50 (H3N2 subtype): 45.3 µM | IC50 (Influenza A virus): 30.6 µM | zone of inhibition at 10000 µg/mL (Staphylococcus aureus): 0 mm

CCC(C)CCCCc1coc(=O)c(C)c1O (stereo not given)
CC50 at 48 h [1]: 1620 µM | IC50 (H3N2 subtype): 82.3 µM | IC50 (Influenza A virus): 79.3 µM | zone of inhibition at 10000 µg/mL (Staphylococcus aureus): 18 mm

NC(=O)c1ncn([C@@H]2O[C@H](CO)[C@@H](O)[C@H]2O)n1 [RIBAVIRIN]
CC50 at 48 h [1]: 1370 µM | IC50 (H3N2 subtype): 99.6 µM | IC50 (Influenza A virus): 66.7 µM
